The values that follow come from publication PMC5732773, “Metabolism, pharmacokinetics, and bioavailability of ZB716, a Steroidal Selective Estrogen Receptor Downregulator (SERD)” (Oncotarget, 2017).

On the set-up of data set [1]: method as in PMID 27529700, PMID 29467940. The settings on record: cited from earlier work.
On the set-up of data set [2]: method as in PMID 12490735. As to conditions: second line therapy in the metastatic setting; cited from earlier work.
Data set [3] is described as follows: Sulfation in rat liver cytosol with PAPS.
Protocol: Sulfate conjugation is enabled by sulfotransferases in the presence of the cofactor 3'-phosphoadenosine-5'-phosphosulfate (PAPS).
The pre-incubation solution was prepared by adding 13.5 μL 1 M pH=7.5 Tris-HCl buffer, 247.5 μL water, 6 μL 1 mM 3'-Phosphoadenosine-5'-phosphosulfate (PAPS) from R&D Systems, 30 μL (10 mg/mL) cytosolic protein from Corning Gentest into a 1.5 mL microcentrifuge. The mixtures were incubated at 37°C for 5 min in an incubator. Then 3 μL of 10 mM ZB716 was added, mixed, and incubated at 37°C for 60 min in the incubator. After incubation, 300 μL MeOH was added to terminate the reaction. The final mixture was then -centrifuged at 10,000×g for 4 min at 4 °C. The supernatant was analyzed by the UHPLC-Q-Exactive instrument.
The Q-Exactive mass spectrometer was coupled to a UHPLC ultimate 3000 (Dionex) using a C-18 column (1.8 μm, 2.1 mm x 50 mm). The gradient started from 30% mobile phase B (acetonitrile with 0.05% formic acid) for 1 min, increased to 100% B in 4.5 min, held for 5 min, then decreased back to 30% B and held for 5 min. Mobile phase A was water with 0.05% formic acid. The flow rate was controlled at 0.3 mL/min. PRM mode was used to obtain the fragment patterns for metabolites with the setting of MS2 resolution of 17500, AGC target of 1e5, maximum IJ of 100 ms, NCE setting of 35. […]
The nature of data set [4]: ZB716 and metabolites in rat feces after oral dosing. As to conditions: for share measured in feces after 72 hours: oral ZB716, after 72 h.
Protocol: (§1) Female Sprague-Dawley rats, weighing between 350 and 400 g (Charles River Laboratories, Portage, MI), were used for this study on ZB716. Oral gavages containing ZB716 were formulated in 5% dimethyl sulfoxide (DMSO), 40% polyethylene glycol 400, and 55% saline. Rats were housed in metabolic cages for collection of urine and feces samples after oral administration of ZB716 at a dose of 5 or 10 mg/kg. […] Urine and feces were collected for the durations of 0-1h, 1-3h, 3-6h, 6-8h, 8-24h, 24-48h, 48-72h, 72-96h, and 96-120 h after drug administration.
The internal standard of trans-tamoxifen-13C2,15N (0.5 ng/μL in methanol) was added to the feces samples at 10 ng/g feces based on the weight of the feces collected. Feces samples were homogenized with a Power Gen 125 homogenizer (Fisher Scientific) in the mixture of chloroform/methanol (2:1, v:v) and stored at -20 °C overnight. After sonicating for 30 min, the samples were centrifuged with a Heraeus Megafuge16R centrifuge at 3000 RPM. The supernatant was dried with nitrogen gas at room temperature and resuspended with corresponding amount of methanol (200 μL methanol/g feces) for injection on the UHPLC-Q-Exactive instrument.
(§2) The Q-Exactive mass spectrometer was coupled to a UHPLC ultimate 3000 (Dionex) using a C-18 column (1.8 μm, 2.1 mm x 50 mm). The gradient started from 30% mobile phase B (acetonitrile with 0.05% formic acid) for 1 min, increased to 100% B in 4.5 min, held for 5 min, then decreased back to 30% B and held for 5 min. Mobile phase A was water with 0.05% formic acid. The flow rate was controlled at 0.3 mL/min. PRM mode was used to obtain the fragment patterns for metabolites with the setting of MS2 resolution of 17500, AGC target of 1e5, maximum IJ of 100 ms, NCE setting of 35. The heated ESI probe setting was set as sheath gas at 30 psi, auxiliary gas at 8 psi, spray voltage at 2500V, capillary temperature at 280°C, S-lens RF level at 50, and auxiliary gas heater temperature at 300°C.
Concentrated stock solutions of ZB716 and fulvestrant were prepared at 1 mM in methanol. The stock solution of the internal standard (trans-tamoxifen-13C2,15N) was prepared at 1000 ng/μL in methanol.
Data set [5] is described as follows: ZB716 and metabolites in rat urine after oral dosing. As to conditions: for share in urine accounted for in urinary excretion 72 hours after oral dosage: oral ZB716, after 72 h.
Description: Urine samples were subjected to the same HPLC-MS/MS analysis to identify ZB716 and any possible metabolites over a time course post oral administration. […] Again, quantitation was only possible with ZB716 and fulvestrant for which standard calibration curves were established.
as §1
Urine samples were thawed at room temperature and vortaxed. 200 μL of the sample was transferred to a 1.5 mL Eppendorf microcentrifuge tube followed by adding 10 μL of the 0.5 ng/μL trans-tamoxifen-13C2,15N in methanol solution and 200 μL methanol. After Vortaxing and centrifuging, the sample was injected into the UHPLC-Q-Exactive instrument for analysis.
as §2
(§3) Concentrated stock solutions of ZB716 and fulvestrant were prepared at 1 mM in methanol. The stock solution of the internal standard (trans-tamoxifen-13C2,15N) was prepared at 1000 ng/μL in methanol. The above stock solutions were kept at -20°C until use. The working solutions of ZB716 and fulvestrant were prepared at 100 μM in methanol. The working solution of the internal standard trans-tamoxifen-13C2, 15N was prepared at 5 ng/μL and 0.5 ng/ μL in methanol, respectively. Working solutions at various concentrations were prepared by diluting their corresponding stock solution with methanol. Calibration standards quality control solutions were prepared over a range of five orders of magnitude.
Data set [6] in a line: Oxidative metabolism of ZB716 in rat liver microsomes with NADPH. As to conditions: ZB716 with rat liver microsome and NADPH, 1 hour. (Liver microsomes are vesicles of endoplasmic reticulum, rich in cytochrome P450 enzymes.)
Protocol: By incubating ZB716 with rat liver microsome in the presence of NADPH for 1 hour, the cytochrome P450 enzymes in the microsomes were allowed to oxidize ZB716 under aerobic conditions.
NADPH solution A contains NADP+ and Glucose 6-phosphate. NADPH solution B contains Glucose-6-phosphate dehydrogenase, which is necessary for NADPH regeneration. The pre-incubation solution was prepared by adding 30 μL of potassium phosphate buffer (pH 7.4; 10x), 241.5 μL water, 15μL of NADPH solution A, 3 μL of NADPH solution B, and 7.5 μL rat liver microsomes from Corning Gentest into a 1.5 mL microcentrifuge tube. The mixtures were incubated at 37°C for 5 min in an incubator. Then 3 μL of 10 mM ZB716 was added, mixed, and incubated at 37°C for 60 min in the incubator. After incubation, 300 μL MeOH was added to terminate the reaction. The final mixture was then centrifuged at 10,000×g for 4 min at 4°C. The supernatant was analyzed by UHPLC-HRMS (Thermo Q-Exactive).
The Q-Exactive mass spectrometer was coupled to a UHPLC ultimate 3000 (Dionex) using a C-18 column (1.8 μm, 2.1 mm x 50 mm). The gradient started from 30% mobile phase B (acetonitrile with 0.05% formic acid) for 1 min, increased to 100% B in 4.5 min, held for 5 min, then decreased back to 30% B and held for 5 min. Mobile phase A was water with 0.05% formic acid. The flow rate was controlled at 0.3 mL/min. […]
Data set [7] in a line: Glucuronidation in liver microsomes with UGT reaction mix (UDPGA). As to conditions: fulvestrant incubated with liver microsomes and UDPGA.
Protocol: The pre-incubation solution was prepared by adding 205.5 μL water, 24 μL of UGT Reaction Mix solution A, 60μL of UGT Reaction Mix solution B, 7.5 μL rat liver microsomes from Corning Gentest into a 1.5 mL microcentrifuge. The mixtures were incubated at 37°C for 5 min in an incubator. Then 3 μL of 10mM ZB716 was added, mixed, and incubated at 37°C for 60 min in the incubator. After incubation, 300 μL MeOH was added to terminate the reaction. The final mixture was then centrifuged at 10,000× g for 4 min at 4 °C. The supernatant was analyzed by the UHPLC-Q-Exactive instrument.
as §2
The nature of data set [8]: Metabolism and pharmacokinetics of ZB716 in rat plasma after oral dosing.
Protocol: The same PRM approach was used to identify the metabolites of ZB716 in rat plasma collected at various time points after a single oral dose of 10 mg/kg. […] The pharmacokinetics parameters were calculated using a noncompartment extravascular model (Table 3).
Female Sprague-Dawley rats, weighing between 350 and 400 g (Charles River Laboratories, Portage, MI), were used for this study on ZB716. Oral gavages containing ZB716 were formulated in 5% dimethyl sulfoxide (DMSO), 40% polyethylene glycol 400, and 55% saline. Rats were housed in metabolic cages for collection of urine and feces samples after oral administration of ZB716 at a dose of 5 or 10 mg/kg. […] Urine and feces were collected for the durations of 0-1h, 1-3h, 3-6h, 6-8h, 8-24h, 24-48h, 48-72h, 72-96h, and 96-120 h after drug administration. Blood samples were collected from the lateral tail vein of the rats at 5 min, 15 min, 30 min, 1 h, 3 h, 6 h, 8 h, 24 h, and 48 h time points after drug administration. Rat blood was collected with a capillary into 1.5 mL microcentrifuge tubes containing 0.01 mL of 10 % EDTA anticoagulant. Plasma was then separated from cell pellets by centrifugation in a refrigerated centrifuge at 4 °C and transferred to a separate tube. Plasma samples were frozen at -80 °C until analysis.
Plasma samples (100 μL) were extracted using a modified Folch method for lipid extraction. Internal standard (10 μL 0.5 ng/μL trans-tamoxifen-13C2,15N in methanol), methanol (0.5 mL) and chloroform (1 mL) were added to each plasma sample. The mixtures were stored at −20 °C overnight. Samples were sonicated for 10 min and then centrifuged with a Thermo Scientific Heraeus Megafuge16 centrifuge. The top liquid layer was transferred to another test tube. The bottom residual layer was washed with 0.5 mL of chloroform/methanol (2:1), centrifuged, and the top layer was transferred and combined with the previous top layer. The mixture was dried out with nitrogen at room-temperature and re-suspended in 100 μL of HPLC grade methanol for injection.
as §2, §3
Data set [9] deals with UGT1A1, -1A3, -1A4, and -1A8. The settings on record: predominant site 3-hydroxyl; cited from earlier work.
Where [10] appears, read: female, Sprague-Dawley, rat, plasma, po, 10 mg/kg.

One may read the AUC(0-t) as the area under the concentration-time curve up to a stated or last time point. A low value points to low exposure. By MRT inf is commonly meant the average time that molecules of a dose stay in the body. Usually Tmax stands for the time at which the peak concentration occurs. Broadly, the Cmax is the peak of the concentration-time curve.

Read-outs that look alike come from different tables or passages of the source.

Consider `C[C@]12CC[C@@H]3c4ccc(O)cc4C[C@@H](CCCCCCCCC[S+]([O-])CCCC(F)(F)C(F)(F)F)[C@H]3[C@@H]1CC[C@@H]2O` (stereo partly drawn) [Fulvestrant, reference compound], for which, in data set [1] (animals, similar dosage via s.c. injection), the peak plasma concentration is on record as 20 ng/mL. The clinical response rate entry in [2] is “below 20%”. The site of sulfation entry in [3] (fulvestrant incubated with rat liver cytosol) is recorded as “predominantly at 3-position”. In [4] (rat feces after single oral dose of ZB716, + detected, - not detected), the “detected in rat feces” value is listed as “detected”. In data set [4] (rat), the “share measured in feces after 72 hours” value was “Less than 1%”. Besides, the “fulvestrant excreted in feces before 72 h” value in data set [4] (rat, oral ZB716, metabolite fulvestrant, before 72 h) stood at 69.2%. For the same compound, in data set [5] (rat urine after oral administration of ZB716, + detected, - not detected), the “detected in rat urine” value is reported as “detected”. Also, in [5] (rat), the “share in urine accounted for in urinary excretion 72 hours after oral dosage” value is “less than 1%”. Also, in data set [5] (rat, oral ZB716, metabolite fulvestrant, first 48 h), the “share of all fulvestrant found in urine excreted in the first 48 hours” value turned out to be 97.6%. Further, the “oxidative metabolite of ZB716 identified in incubation mixture” value in data set [6] is on record as “identified”. For the same compound, in data set [7], the site of glucuronidation result is listed as “primarily at 3-OH”. In addition, in data set [8] (rat plasma after single oral dose of ZB716 10 mg/kg, + detected, - not detected), the “detected in rat plasma” value is “identified”.
In the case of `CC12CCC3c4ccc(O)cc4CC(CCCCCCCCC[S+]([O-])CCCC(F)(F)C(F)(F)F)C3C1CCC2OC1OC(C(=O)O)C(O)C(O)C1O` (stereo not drawn) [FU-17-glucuronide], the “share of fulvestrant glucuronidation products” value in data set [9] was 5-10%.
`C[C@]12CC[C@@H]3c4ccc(B(O)O)cc4C[C@@H](CCCCCCCCC[S+]([O-])CCCC(F)(F)C(F)(F)F)[C@H]3[C@@H]1CC[C@@H]2O` (stereo partly drawn) [ZB716]: in [1] (mice and rats, oral administration at 10 mg/kg), the peak plasma concentration is reported as > 100 ng/mL. Also, the “number of sulfate conjugation products observed” value in [3] (ZB716 with rat liver cytosol and PAPS) was “three”. In addition, the “share measured in feces after 72 hours” value in data set [4] (rat) is reported as “Less than 1%”. Further, the “share of total ZB716 present in feces excreted in 24 hours” value in data set [4] (rat, oral, 0-24 h) was 80.7%. For the same compound, the “share of ZB716 in feces excreted between 24 h to 72 h” value in [4] (rat, oral, 24-72 h) is given as 10.2%. In addition, the “share in urine accounted for in urinary excretion 72 hours after oral dosage” value in [5] (rat) is reported as “less than 1%”. Besides, in [5] (rat, oral, 24-72 h), the “share of ZB716 in urine excreted between 24 h to 72 h” value is reported as 34.4%. In addition, the “share of ZB716 in urine excreted before 24 h” value in [5] (rat, oral, before 24 h) is reported as “about 63.7%”. In addition, in data set [6], the “number of direct or indirect oxidative metabolites identified” value is on record as “eight”. For the same compound, in data set [8] (setting [10]), the area under the curve AUC(0-t) worked out at 1300 ng·h/mL, the MRT inf is 18.4 h, the time to peak (Tmax) was 2 h and the concentration at 1 h was 130 ng/mL. In data set [8] (setting [10]), this compound had a concentration at 4 h of 87.1 ng/mL, a concentration at 8 h of 26.4 ng/mL, a concentration at 48 h of 6.91 ng/mL and a k el of 1.11e-05 s⁻¹. The “share of ZB716 metabolized to fulvestrant” value in [8] (in vivo, observed in mice (ref 27-28) and again in rats in this study) is reported as 10-30%. In addition, in data set [8] (rat, oral 10 mg/kg), the “AUC 0-inf_obs” value worked out at 1451.82 ng·h/mL, the Cmax is 158.12 ng/mL and the “Vz/Fobs (apparent volume of distribution during terminal phase)” value is given as 13.97 (mg/kg)/(ng/mL). The compound further yielded a t1/2 in data set [8] (rat, oral 10 mg/kg, noncompartment extravascular model) of 17.03 h. In data set [8] (rat, single oral dose 10 mg/kg, within 2 hours after peak), the “loss of plasma concentration from 2 h to 4 h” value amounted to 44.9%.
